From paper PMC5736709, “Unravelling the specificity and mechanism of sialic acid recognition by the gut symbiont Ruminococcus gnavus” (Nature Communications, 2017)
“Also recorded” adds a separate entry of the source.

Tests used:
Design in all cases: species or system Ruminococcus gnavus ATCC 29149
RgCBM40 E126A = target: T1, RgCBM40 E126A (Mediterraneibacter gnavus (Ruminococcus gnavus), UniProt A7B557, E126A); assay: ITC of sialoglycans binding to RgCBM40 mutant E126A; details: for Kd: ITC
T1 sequence (A7B557 50-237 E126A): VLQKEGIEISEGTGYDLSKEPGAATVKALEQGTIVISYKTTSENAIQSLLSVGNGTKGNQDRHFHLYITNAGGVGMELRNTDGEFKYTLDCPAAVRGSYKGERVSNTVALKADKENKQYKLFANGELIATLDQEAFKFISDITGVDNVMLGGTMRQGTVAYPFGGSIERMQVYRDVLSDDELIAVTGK
Method: (§1) Site directed mutagenesis of RgGH33 to introduce the D282A mutation in the active site was carried out using the QuikChange kit, following the manufacturer’s instructions, Agilent (Santa Clara, CA, USA). Site-directed mutants of RgCBM40; I95A, Y116A, E126A, R128A, R204A and double mutant R128A/R204A, were obtained from NZyTech (Lisbon, Portugal). The primers are listed in Supplementary Table 4. The integrity of the RgGH33 and RgCBM40 mutants was checked by circular dichroism (CD).
(§2) Isothermal titration calorimetry (ITC) experiments were performed using the PEAQ-ITC system (Malvern, Malvern, UK) with a cell volume of 200 µl. Prior to titration protein samples were exhaustively dialysed into PBS. The ligand was dissolved in the dialysis buffer. The cell protein concentration was 115 µM (except for mutant I95A where it was 173 µM and the wild-type interaction with 6′SL where it was 230 µM) and the syringe ligand concentration was 10 mM (25 mM for Neu5Ac). Controls with titrant (sugar) injected into buffer only were subtracted from the data. Analysis was performed using Malvern software, using a single-binding site model. The stoichiometry of binding sites was set to 1.0 as this was evident from the crystal structure. Quantitative and most qualitative experiments were carried out in triplicate.

RgCBM40 I95A = target: T2, RgCBM40 I95A (Mediterraneibacter gnavus (Ruminococcus gnavus), UniProt A7B557, I95A); assay: ITC of sialoglycans binding to RgCBM40 mutant I95A; details: for Kd: 173 µM protein, syringe 10 mM sugar (25 mM for Neu5Ac), * = estimate only
T2 sequence (A7B557 50-237 I95A): T1 sequence (A7B557 50-237 E126A)
Method: as §1, §2

RgCBM40 Y210A = target: T3, RgCBM40 Y210A (Mediterraneibacter gnavus (Ruminococcus gnavus), UniProt A7B557, Y210A); assay: ITC of sialoglycans binding to RgCBM40 mutant Y210A; details: for Kd: ITC
T3 sequence (A7B557 50-237 Y210A): T1 sequence (A7B557 50-237 E126A)
Method: as §2

RgCBM40 R128A/R204A = target: T4, RgCBM40 R128A/R204A (Mediterraneibacter gnavus (Ruminococcus gnavus), UniProt A7B557, R128A/R204A); assay: ITC of sialoglycans binding to RgCBM40 double mutant R128A/R204A; details: for Kd: ITC
T4 sequence (A7B557 50-237 R128A/R204A): T1 sequence (A7B557 50-237 E126A)
Method: as §1, §2

[1] = system: RgCBM40 binding to LS174T MUC2; assay: ELISA of RgCBM40 binding to LS174T MUC2 in competition with sugars; details: RgCBM40 preincubated with 1 mM free sugar overnight at 4 °C; immobilised LS174T MUC2; A450
Method: RgCBM40 binding to purified mucins was tested by ELISA. Mucins (100 μl of 10 μg ml^−1) were immobilised onto a high binding 96 well plate (Greiner, Stonehouse, UK) overnight at 4 °C. All subsequent steps were carried out for 1 h at room temperature. The plates were blocked with 3% (w/v) BSA, incubated with RgCBM40 (500 μg ml^−1), followed by an incubation with 1:5000 anti-RgNanH (raised in rabbit, Biogenes) then with 1:5000 anti-rabbit secondary antibody (raised in donkey) conjugated to peroxidase (GE Healthcare). Between each step, the plate was washed with 3 × 300 μl of PBS containing 0.05% (v/v) Tween 20 (PBST). Prior to detection, an additional wash step and 30 s incubation with PBST was carried out. Binding was detected using tetramethylbenzidine (TMB) visualisation solution (Biolegend, San Diego, CA, USA) which was incubated for 15 min. The reaction was stopped by addition of 2 M H2SO4 and absorbance measured at 450 nm using a plate-reader (Bench Marl Plus, Biorad), subtracting background readings at 570 nm. Negative controls including no RgCBM40 (subtracted from A450 value), no primary or no secondary antibody were carried out in parallel. For comparison between plates, values were normalised to the reading for LS174T MUC2 which was arbitrarily set at 100%. For enzymatic treatment of the mucin, LS174T MUC2 (2 mg ml^−1) was incubated with sialidases (2 µg ml^−1) overnight at 4 °C on a rotary wheel prior to immobilisation on the plate. For chemical treatment of mucin, LS174T MUC2 was incubated with 0.1 M trifluoroacetic acid (TFA) at 80 °C for 1 h, dialysed against ammonium bicarbonate (50 mM), lyophilised and redissolved in H2O. For the competition assays, RgCBM40 was incubated with 1 mM of free sugar overnight at 4 °C on a rotary wheel prior to addition to the ELISA plate as above. Experiments were carried out in triplicate.

RgCBM40 R204A = target: T5, RgCBM40 R204A (Mediterraneibacter gnavus (Ruminococcus gnavus), UniProt A7B557, R204A); assay: ITC of sialoglycans binding to RgCBM40 mutant R204A; details: for Kd: ITC
T5 sequence (A7B557 50-237 R204A): T1 sequence (A7B557 50-237 E126A)
Method: as §1, §2

SMILES	Binding by ITC (in words) (RgCBM40 E126A)	Kd (RgCBM40 E126A)	-T∆S (RgCBM40 I95A)	∆G (RgCBM40 I95A)	∆H (RgCBM40 I95A)	Kd (RgCBM40 I95A)	Binding by ITC (in words) (RgCBM40 Y210A)	Kd (RgCBM40 Y210A)	Binding by ITC (in words) (RgCBM40 R128A/R204A)	Kd (RgCBM40 R128A/R204A)	Effect of free sugar on adherence of RgCBM40 to MUC2 [1]	Binding by ITC (in words) (RgCBM40 R204A)	Kd (RgCBM40 R204A)
CC(=O)N[C@H]1[C@H]([C@H](O)[C@H](O)CO)O[C@@](OC[C@H]2O[C@@H](O[C@H]3[C@H](O)[C@@H](O)C(O)O[C@@H]3CO)[C@H](O)[C@@H](O)[C@H]2O)(C(=O)O)C[C@@H]1O (stereo partly drawn) [6′SL, α2,6-sialyllactose]	abolished	> 25 mM	-0.12 ± 0.3 kcal/mol	-3.91 ± 0.07 kcal/mol	-3.79 ± 0.24 kcal/mol	1.37 mM	abolished	> 25 mM	abolished	> 25 mM	significantly decreased	abolished	> 25 mM
CC(=O)N[C@H]1[C@H]([C@H](O)[C@H](O)CO)O[C@@](O[C@H]2[C@@H](O)[C@@H](CO)O[C@@H](O[C@H]3[C@H](O)[C@@H](O)C(O)O[C@@H]3CO)[C@@H]2O)(C(=O)O)C[C@@H]1O (stereo partly drawn) [3′SL, α2-3 sialyllactose]	abolished	> 25 mM	0.97 ± 0.47 kcal/mol	-3.74 ± 0.04 kcal/mol	-4.71 ± 0.43 kcal/mol	1.82 mM	abolished	> 25 mM	abolished; also recorded: loss of binding	> 25 mM	significantly decreased	abolished; also recorded: loss of binding	> 25 mM
